# Test results as given in patent publication US20250145665A1, “MACROCYCLIC PEPTIDES USEFUL AS MODULATORS OF TNF ALPHA” (Bristol-Myers Squibb Company, priority 2023, published 2025).
# Starred links: 1 amine or outer side, 2 acyl side, 3 side chain; linkers in the order of their positions; H or OH if unused. Positions of bridges follow the written chain, without caps; N, C: chain ends. Non-standard residues stand in square brackets, D forms with d. Residues, ends and D or L forms follow the SMILES beside them. ξ: configuration not given here. *: point of attachment. X79 = O=C(O)C1CCCC(C(=O)Nc2ccc(-c3ccc(C[C@H](N[*:1])C(=O)[*:2])cc3)cc2)C1; X37 = O=C(Nc1ccc(-c2ccc(C[C@H](N[*:1])C(=O)[*:2])cc2)cc1)c1ccc2ccccc2c1; X40 = O=C(O)C1CCCCC1C(=O)Nc1ccc(-c2ccc(C[C@H](N[*:1])C(=O)[*:2])cc2)cc1; X73 = O=C(O)CCCC(=O)Nc1ccc(-c2ccc(C[C@H](N[*:1])C(=O)[*:2])cc2)cc1; X64 = O=C(O)CCC(=O)Nc1ccc(-c2ccc(C[C@H](N[*:1])C(=O)[*:2])cc2)cc1; Bip(4'-NH) = O=C([C@H](Cc1ccc(-c2ccc(N[*:3])cc2)cc1)N[*:1])[*:2]; Bip(4'-COOH) = N[C@@H](Cc1ccc(-c2ccc(C(=O)O)cc2)cc1)C(=O)O; Bip(4'-NHAc) = CC(=O)Nc1ccc(-c2ccc(C[C@H](N)C(=O)O)cc2)cc1; Ala(morpholin-4-yl) = N[C@@H](CN1CCOCC1)C(=O)O; Phe(3-CONH2) = NC(=O)c1cccc(C[C@H](N)C(=O)O)c1; Bip = N[C@@H](Cc1ccc(-c2ccccc2)cc1)C(=O)O; X57 = Cn1c(C(=O)*)cc2c(Cl)cccc21; Cha = N[C@@H](CC1CCCCC1)C(=O)O; Chg = N[C@H](C(=O)O)C1CCCCC1; ξE = NC(CCC(=O)O)C(=O)O; Sar = CNCC(=O)O
# Biological target: TNFα (Homo sapiens, UniProt P01375)
# Assay: TNF-Induced HEK-Blue Assay
# Type: cell-based
# Conditions: HEK-Blue-CD40L cells, NF-kB-driven secreted alkaline phosphatase reporter; TNFα 0.5 ng/ml; 18 h; read-out: TNF induced HEK-Blue assay IC50 value
# Chain of TNFα (P01375 77-233 limits assumed): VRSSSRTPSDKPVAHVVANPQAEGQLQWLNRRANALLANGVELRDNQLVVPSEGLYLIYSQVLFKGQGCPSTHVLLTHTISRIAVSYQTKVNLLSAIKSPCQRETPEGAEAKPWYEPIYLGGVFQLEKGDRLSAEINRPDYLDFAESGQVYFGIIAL
row,SMILES,IC50 [nM]
1,CC[C@H](C)[C@@H]1NC(=O)[C@@H](CCCNC(=N)N)NC(=O)[C@H](CC(=O)O)NC(=O)[C@H](Cc2cnc[nH]2)NC(=O)CN(C)C(=O)[C@H](Cc2ccc(-c3ccc(NC(=O)C4CCCCC4C(=O)O)cc3)cc2)NC(=O)[C@H](Cc2ccc(-c3ccccc3)cc2)NC(=O)[C@H](CC2CCCCC2)NC(=O)CSC[C@@H](C(=O)NCC(N)=O)NC(=O)[C@H](CC(C)C)NC(=O)[C@H](Cc2cnc[nH]2)NC(=O)[C@H](C(C)C)NC(=O)[C@@H]2CCCN2C1=O (some centres unmarked) [Example 318] ({CH2CO}-[Cha][Bip][X40][Sar]HD[dR]IPVHLCG-NH2; thioether N-13),50 to 200
2,CC(=O)Nc1ccc(-c2ccc(C[C@@H]3NC(=O)[C@H](Cc4ccc(-c5ccc(C(=O)O)cc5)cc4)NC(=O)[C@H](CN4CCOCC4)NC(=O)CSC[C@@H](C(=O)NCC(N)=O)NC(=O)[C@H](CC(C)C)NC(=O)[C@H](Cc4cccc(C(N)=O)c4)NC(=O)[C@H](C4CCCCC4)NC(=O)[C@@H]4CCCN4C(=O)[C@H](C(C)C)NC(=O)[C@@H](CCCNC(=N)N)NC(=O)[C@H](CC(=O)O)NC(=O)[C@@H]4CCCN4C(=O)CN(C)C3=O)cc2)cc1 [Example 320] ({CH2CO}-[Ala(morpholin-4-yl)][Bip(4'-COOH)][Bip(4'-NHAc)][Sar]PD[dR]VP[Chg][Phe(3-CONH2)]LCG-NH2; thioether N-13),200 to 2000
3,CC(=O)Nc1ccc(-c2ccc(C[C@@H]3NC(=O)[C@H](Cc4ccc(-c5ccccc5)cc4)NC(=O)[C@H](CC4CCCCC4)NC(=O)CSC[C@@H](C(=O)NC(CCC(=O)O)C(N)=O)NC(=O)[C@H](CC(C)C)NC(=O)[C@H](Cc4ccc(O)cc4)NC(=O)[C@H](C(C)C)NC(=O)[C@@H]4CCCN4C(=O)[C@H](C(C)C)NC(=O)[C@@H](CCCNC(=N)N)NC(=O)[C@H](CC(=O)O)NC(=O)[C@@H]4CCCN4C(=O)CN(C)C3=O)cc2)cc1 (some centres unmarked) [Example 321] ({CH2CO}-[Cha][Bip][Bip(4'-NHAc)][Sar]PD[dR]VPVYLC[ξE]-NH2; thioether N-13),50 to 200
4,CC[C@H](C)[C@@H]1NC(=O)[C@@H](CCCNC(=N)N)NC(=O)[C@H](CC(=O)O)NC(=O)[C@H](Cc2cnc[nH]2)NC(=O)CN(C)C(=O)[C@H](Cc2ccc(-c3ccc(NC(=O)c4ccc5ccccc5c4)cc3)cc2)NC(=O)[C@H](Cc2ccc(-c3ccccc3)cc2)NC(=O)[C@H](CC2CCCCC2)NC(=O)CSC[C@@H](C(=O)NCC(N)=O)NC(=O)[C@H](CC(C)C)NC(=O)[C@H](Cc2cnc[nH]2)NC(=O)[C@H](C(C)C)NC(=O)[C@@H]2CCCN2C1=O [Example 322] ({CH2CO}-[Cha][Bip][X37][Sar]HD[dR]IPVHLCG-NH2; thioether N-13),50 to 200
5,CC[C@H](C)[C@@H]1NC(=O)[C@@H](CCCNC(=N)N)NC(=O)[C@H](CC(=O)O)NC(=O)[C@H](Cc2cnc[nH]2)NC(=O)CN(C)C(=O)[C@H](Cc2ccc(-c3ccc(NC(=O)CCCC(=O)O)cc3)cc2)NC(=O)[C@H](Cc2ccc(-c3ccccc3)cc2)NC(=O)[C@H](CC2CCCCC2)NC(=O)CSC[C@@H](C(=O)NCC(N)=O)NC(=O)[C@H](CC(C)C)NC(=O)[C@H](Cc2cnc[nH]2)NC(=O)[C@H](C(C)C)NC(=O)[C@@H]2CCCN2C1=O [Example 324] ({CH2CO}-[Cha][Bip][X73][Sar]HD[dR]IPVHLCG-NH2; thioether N-13),50 to 200

# Now from value to compound:
row,IC50 [nM],SMILES
1,50 to 200,CC[C@H](C)[C@@H]1NC(=O)[C@@H](CCCNC(=N)N)NC(=O)[C@H](CC(=O)O)NC(=O)[C@H](Cc2cnc[nH]2)NC(=O)CN(C)C(=O)[C@H](Cc2ccc(-c3ccc(NC(=O)C4CCCC(C(=O)O)C4)cc3)cc2)NC(=O)[C@H](Cc2ccc(-c3ccccc3)cc2)NC(=O)[C@H](CC2CCCCC2)NC(=O)CSC[C@@H](C(=O)NCC(N)=O)NC(=O)[C@H](CC(C)C)NC(=O)[C@H](Cc2cnc[nH]2)NC(=O)[C@H](C(C)C)NC(=O)[C@@H]2CCCN2C1=O (some centres unmarked) [Example 317] ({CH2CO}-[Cha][Bip][X79][Sar]HD[dR]IPVHLCG-NH2; thioether N-13)
2,50 to 200,CC[C@H](C)[C@@H]1NC(=O)[C@@H](CCCNC(=N)N)NC(=O)[C@H](CC(=O)O)NC(=O)[C@H](Cc2cnc[nH]2)NC(=O)CN(C)C(=O)[C@H](Cc2ccc(-c3ccc(NC(=O)c4cc5c(Cl)cccc5n4C)cc3)cc2)NC(=O)[C@H](Cc2ccc(-c3ccccc3)cc2)NC(=O)[C@H](CC2CCCCC2)NC(=O)CSC[C@@H](C(=O)NCC(N)=O)NC(=O)[C@H](CC(C)C)NC(=O)[C@H](Cc2cnc[nH]2)NC(=O)[C@H](C(C)C)NC(=O)[C@@H]2CCCN2C1=O [Example 319] ({CH2CO}-[Cha][Bip][Bip(4'-NH)](X57)[Sar]HD[dR]IPVHLCG-NH2; thioether N-13)
3,50 to 200,CC[C@H](C)[C@@H]1NC(=O)[C@@H](CCCNC(=N)N)NC(=O)[C@H](CC(=O)O)NC(=O)[C@H](Cc2cnc[nH]2)NC(=O)CN(C)C(=O)[C@H](Cc2ccc(-c3ccc(NC(=O)CCC(=O)O)cc3)cc2)NC(=O)[C@H](Cc2ccc(-c3ccccc3)cc2)NC(=O)[C@H](CC2CCCCC2)NC(=O)CSC[C@@H](C(=O)NCC(N)=O)NC(=O)[C@H](CC(C)C)NC(=O)[C@H](Cc2cnc[nH]2)NC(=O)[C@H](C(C)C)NC(=O)[C@@H]2CCCN2C1=O [Example 323] ({CH2CO}-[Cha][Bip][X64][Sar]HD[dR]IPVHLCG-NH2; thioether N-13)
